Experimental findings from patent publication US9790211B2, “5-amino-quinoline-8-carboxamide derivatives as 5-HT4 receptor agonists” (SUVEN LIFE SCIENCES LIMITED, priority 2013, dated 2017) are described below.

One test concerns Aβ1-40. Briefly: Effect on CSF Aβ1-40 level (ELISA). The following applies: p.o., at two hour. Type of test: in vivo, Male Sprague Dawley Rat. The protocol: The control group of male rats received a vehicle (reagent grade water) per orally by gavage at a dose volume of 10 mL/kg. The treated groups (6 rat per group) received a single dose of test compound (different doses) or DAPT (50.0 mg/kg). Two hour post dose of vehicle or test compounds, rats were anesthetized with isoflurane and CSF was collected from Cisterna magna using 0.5 mL syringes by utilizing stereotaxic frame. The CSF samples were frozen in liquid nitrogen and stored at −80° C. until ELISA was performed.
• 1. CSF samples were thawed to RT and diluted with Tris Buffer Saline containing protease inhibitors at 1:10 ratio 115:150 μL (15 μL CSI+135 μL TBS. • 2. To this diluted CSF samples 0.15 mL of EIA buffer (1:1 ratio) was added. These diluted samples were subjected for Aβ1-40 level measurement by ELISA. Measurement of Aβ1-40 by ELISA Kit:
To investigate the role of an acute treatment of test compound on Aβ1-40 levels, expression of this protein in CSF was measured in treated and untreated rat by ELISA assay. The entire procedure was followed as per ELISA kit manual (Mouse/Rat Amyloid-Aβ1-40 ELISA, Cat No: 27721, IBL International, Hamburg, Germany).
Statistical analysis was performed using the Graph Pad Prism (Version 4). Data are Mean±SD of Aβ1-40 levels expressed as percentage of control values (rat which received regent grade water). Values were compared between the different groups by using unpaired t test. The significance level was set at *p<0.05; **p<0.01; ***p<0.001.
Background: ELISA stands for enzyme-linked immunosorbent assay.

Test [1] concerns acetylcholine levels in ventral hippocampus. Briefly: Modulation of acetylcholine from the ventral hippocampus (microdialysis). The following applies: p.o. Type of test: in vivo, male Wistar rats. From the text: Male Wistar rats (240-300 gram body weights) were stereotaxically implanted with a microdialysis guide cannula in the ventral hippocampus (AP: −5.2 mm, ML: +5.0 mm, DV: −3.8 mm). Co-ordinates were taken according to Paxinos and Watson (2007) with reference points taken from bregma and vertical from the skull. The rats were allowed to recover individually for five days in a round bottom Plexiglas bowl with free access to feed and water.
One day prior to the microdialysis experiment, rats were connected to a dual quartz lined two-channel liquid swivel (Instech, UK) on a counter balance lever arm, which allowed unrestricted movements of the animal. […]
On the day of study, probe was perfused at a constant flow rate of […] with artificial cerebrospinal fluid (aCSF; NaCl 147 mM, KCl 3.0 mM, MgCl2 1.0 mM, CaCl2. 2H2O 1.3 mM, NaH2PO4.2H2O 0.2 mM and Na2HPO4. 7H2O 1.0 mM, pH 7.2). […] Dialysates were stored below −70° C. until quantitation of acetylcholine.
Acetylcholine in dialysate was quantified in the calibration range of 0.103 nmol-103.497 nmol using LC-MS/MS method.
All microdialysis data were plotted as percent change from mean dialysate basal concentrations with 100% defined as the average of five predose values. The AUC was calculated by trapezoidal rule using WinNonlin (5.0.1 version. Pharsight Corp. CA). […]

Test [2] has as its system Scopolamine Induced amnesia. Kind of test: Radial arm maze. Type of test: in vivo. Conditions: p.o., rats. The text has this:
The cognition enhancing properties of compounds of formula (I) of this invention were estimated by using this model.
Radial arm maze consists of a central hub of 45 cm diameter. Each arm was of dimension 42.5×15×24 cm. The maze was elevated to a height of 1 m above the ground. The animals were placed on a restricted diet until they reached approximately 85% of their free feeding weight. During this diet restriction period animals were habituated to the novel feed (pellets). Once the rats reached approximately 85% of their free feeding weight rats were habituated to the maze on the 1st and 2nd day. […] Animals were randomized on day 2. On the subsequent days the treatment was given as per the allotment: Each animal was introduced into the maze individually for a period of 10 minutes. The arms were baited only once and the animal had to learn the rule that repeated arm entries would not be rewarded. The trial ended once the rat had visited 16 arms or 10 minutes were over or all the pellets were eaten. The arm entries were recorded using the software. Once the trial was over the rat was removed and the maze was cleaned using soap water.

SMILES strings stand for the structures.

Consider `Nc1c(Cl)cc(C(=O)NCC2CCN(CC3CCOCC3)CC2)c2ncccc12.O=C(O)/C=C/C(=O)O` [Example 1, 5-Amino-6-chloro-N-{[1-(tetrahydro-2H-pyran-4-ylmethyl)-4-piperidinyl]methyl}quinoline-8-carboxamide hemifumarate], for which the “decrease in the rat CSF Aβ1-40 levels” value in the test with Aβ1-40 (0.03 mg/kg) is listed as 27%; in the test with Aβ1-40 (0.1 mg/kg) it was 24%; with Aβ1-40 (0.3 mg/kg), 40%; in the test on Aβ1-40 (1.0 mg/kg), 22%; in the test with Aβ1-40 (3.0 mg/kg), 29%.
On to `Nc1c(Cl)cc(C(=O)NCC2CCN(CC3CCOCC3)CC2)c2ncccc12.O=C(O)C(O)C(O)C(=O)O` [Example 13, 5-Amino-6-chloro-N-{[1-(tetrahydro-2H-pyran-4-ylmethyl)-4-piperidinyl]methyl} quinoline-8-carboxamide L(+)-tartarate], for which the “Area under the curve of acetylcholine change, ventral hippocampus (in words)” value in test [1] (10.0 mg/kg, vs vehicle, p<0.01) is “significant”. The “acetylcholine levels from the ventral hippocampus (in words)” value in test [1] (3.0 and 10.0 mg/kg, male Wistar rats) is recorded as “dose dependent increase”. In addition, the “Reversal of Scopolamine Induced amnesia - Effective dose range” value in test [2] is on record as 0.1-1 mg/kg, p.o.
